# Measurements reported in ChEMBL document CHEMBL3044762, “Design, Synthesis and Evaluation of Trisubstituted Thiazoles Targeting Plasmodium Falciparum Cysteine Proteases” (Med Chem Res, 2005).
# Columns and labels:
# Plasmodium falciparum [1] = test: Antimalarial activity against Plasmodium falciparum W2 […] after 72 hr by LDH assay; type: functional
# Plasmodium falciparum [2] = test: Antimalarial activity against Plasmodium falciparum D6 at EC50 after 72 hr by LDH assay; type: functional; design: concentration or dose not given beside the values
# Vero [3] = test: (§1) Cytotoxicity against Chlorocebus aethiops (African green monkey) Vero cells by Neutral Red assay; type: cell-based; conditions: chlorocebus sabaeus, vero
# Leishmania donovani = test: Antileishmanial activity against Leishmania donovani promastigotes after 72 hr by alamar blue assay; type: functional, organism-based
# Plasmodium falciparum [4] = test: Antimalarial activity against Plasmodium falciparum W2 after 72 hr by LDH assay; type: functional, organism-based; conditions: W2, 72 h
# Plasmodium falciparum [5] = test: Antimalarial activity against Plasmodium falciparum D6 after 72 hr by LDH assay; type: functional, organism-based; conditions: D6, 72 h
# Vero [6] = test: Cytotoxicity against Chlorocebus aethiops (African green monkey) Vero cells at TD50 by Neutral Red assay; type: cell-based; conditions: chlorocebus sabaeus
# Falcipain-3 = Falcipain-3 (Plasmodium falciparum, UniProt Q8IIL0); test: Inhibition of recombinant Plasmodium falciparum falcipain-3 using Z-Leu-Arg-AMC as substrate compound treated for 30 min before substrate addition by fluorescence assay
# Falcipain 2 = target: T1, Falcipain 2 (Plasmodium falciparum, UniProt Q9N6S8); test: Inhibition of recombinant Plasmodium falciparum falcipain-2 using Z-Leu-Arg-AMC as substrate compound treated for 30 min before substrate addition by fluorescence assay
# T1 sequence (Q9N6S8 whole entry): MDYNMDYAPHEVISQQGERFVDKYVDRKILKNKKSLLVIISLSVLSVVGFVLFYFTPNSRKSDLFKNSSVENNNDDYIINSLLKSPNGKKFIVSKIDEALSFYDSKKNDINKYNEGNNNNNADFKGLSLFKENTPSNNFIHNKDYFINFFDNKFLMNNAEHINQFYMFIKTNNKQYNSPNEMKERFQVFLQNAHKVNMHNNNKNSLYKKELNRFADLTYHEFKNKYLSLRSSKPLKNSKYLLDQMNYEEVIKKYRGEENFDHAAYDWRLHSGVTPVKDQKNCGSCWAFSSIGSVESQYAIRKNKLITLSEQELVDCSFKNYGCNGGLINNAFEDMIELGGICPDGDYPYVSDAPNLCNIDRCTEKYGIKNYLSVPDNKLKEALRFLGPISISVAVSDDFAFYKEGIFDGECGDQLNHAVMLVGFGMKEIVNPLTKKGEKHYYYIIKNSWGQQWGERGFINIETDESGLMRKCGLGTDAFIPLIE
# [7] = as §1; type: cell-based; conditions: chlorocebus sabaeus, Vero cells; read-out: TD50 (the source's name)
# Falcipain-3, sequence (Q8IIL0 whole entry, looked up): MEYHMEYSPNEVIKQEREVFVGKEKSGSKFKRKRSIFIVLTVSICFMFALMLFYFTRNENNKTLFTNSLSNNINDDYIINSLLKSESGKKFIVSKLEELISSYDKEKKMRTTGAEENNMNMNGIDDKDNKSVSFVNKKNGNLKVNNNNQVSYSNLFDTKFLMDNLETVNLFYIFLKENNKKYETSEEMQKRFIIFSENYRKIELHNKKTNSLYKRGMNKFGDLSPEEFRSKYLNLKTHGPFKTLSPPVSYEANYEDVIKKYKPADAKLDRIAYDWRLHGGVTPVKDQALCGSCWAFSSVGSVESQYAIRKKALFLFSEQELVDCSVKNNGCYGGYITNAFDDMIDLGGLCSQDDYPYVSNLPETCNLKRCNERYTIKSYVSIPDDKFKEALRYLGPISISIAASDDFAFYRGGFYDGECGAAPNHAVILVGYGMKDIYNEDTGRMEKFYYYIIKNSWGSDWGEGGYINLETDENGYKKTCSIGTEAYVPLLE
SMILES,inhibition (INH) (Plasmodium falciparum [1]) [%],inhibition (INH) (Plasmodium falciparum [2]) [%],TD50 (Vero [3]),EC50 (Leishmania donovani) [µM],EC50 (Plasmodium falciparum [4]) [µM],EC50 (Plasmodium falciparum [5]) [µM],Activity (Vero [6]) [%],IC50 (Falcipain-3) [µM],IC50 (Falcipain 2) [µM],CC50 [7] [µM]
Nc1nc(CCc2ccccc2)c(CCCO)s1,26,37,Non-toxic,> 152,> 90.7,> 90.7,,,,
NC(=O)CCc1sc(CCC(=O)CSCCCc2ccccc2)nc1CCc1ccccc1,43,42,,41.6,> 49.5,> 49.5,38,> 50,> 33,> 49.5
O=C(CCc1nc(CCc2ccccc2)c(CCCO)s1)CSCCCc1ccccc1,,,,16.3,19.1,20.3,,> 50,> 12.5,40.6
O=C(CCc1nc(CO)c(CCc2ccccc2)s1)CSCCCc1ccccc1,,,,,> 20,,,> 50,> 12.5,
C[C@@H]1CC[C@H]2[C@@H](C)C(=O)O[C@@H]3O[C@@]4(C)CC[C@@H]1[C@]32OO4 [ARTEMISININ],,,,,0.023,0.025,,,,
N=C(N)c1ccc(OCCCCCOc2ccc(C(=N)N)cc2)cc1 [PENTAMIDINE],,,,5,,,,,,
NC(=O)CCc1sc(NC(=O)CSCCCc2ccccc2)nc1/C=C/c1ccccc1,26,45,Non-toxic,47.2,> 51.1,> 51.1,,55.2,15.3,
C[C@@H]1[C@H](O)[C@@H](C)/C=C/C=C/C=C/C=C/C=C/C=C/C=C/[C@H](O[C@@H]2O[C@H](C)[C@@H](O)[C@H](N)[C@@H]2O)C[C@@H]2O[C@](O)(C[C@@H](O)C[C@@H](O)[C@H](O)CC[C@@H](O)C[C@@H](O)CC(=O)O[C@H]1C)C[C@H](O)[C@H]2C(=O)O [AMPHOTERICIN B],,,,0.2,,,,,,
O=CCCc1sc(CCC(=O)CSCCCc2ccccc2)nc1CCc1ccccc1,26,45,Non-toxic,8.2,> 51.1,> 51.1,,> 50,39.1,
CC(=O)OCc1nc(CCC(=O)CSCCCc2ccccc2)sc1CCc1ccccc1,,,Non-toxic,29.1,24.9,30.5,,> 50,> 33,
CCOC(=O)CCc1sc(NC(=O)CSCCCc2ccccc2)nc1/C=C/c1ccccc1,,,Non-toxic,50.5,20.2,28.3,,,,
O=C(/C=C/c1nc(CCc2ccccc2)c(CCCO)s1)CSCCCc1ccccc1,,,,4.5,13.8,35.4,,29.4,< 6.6,> 51.1
CC(=O)NCCCc1sc(CCC(=O)CSCCCc2ccccc2)nc1CCc1ccccc1,,,Non-toxic,39.3,16.8,32.4,,> 50,> 33,
CCN(CC)CCCC(C)Nc1ccnc2cc(Cl)ccc12 (stereo not drawn) [CHLOROQUINE],,,,,0.359,0.059,,,,
